The text below walks through data of US20030162762A1, “Novel cephalosporin compounds and process for preparing the same” (priority 2000, published 2003).

Holding throughout (test): Minimum Inhibitory Concentration (MIC), agar dilution, standard strains
(In general: In agar dilution, organisms are placed on agar that contains the substance at set levels.)

One assay has as its system S. aureus 241. Type of assay: cell-based, Staphylococcus aureus. The conditions noted are these: Table 1, Mueller-Hinton agar, 37° C., 20 hours; for MIC: Staphylococcus aureus, 241, read-out: Minimum Inhibitory Concentration, S. aureus 241. The protocol:
(§1) The effectiveness of the compound according to the present invention was determined by obtaining Minimum Inhibitory Concentration (MIC) of the compounds prepared by the above examples (Compounds I-1 to I-41) and vancomycin, which is the known compound having a potent activity against gram-positive strains, as the control drug against the standard strains. Specifically, Minimum Inhibitory Concentration was obtained by diluting the test compound according to a double dilution method, dispersing them in Mueller-Hinton agar medium, inoculating each of the test strain having 10^7 cfu (colony forming unit) per ml in an amount of 2 μl to the medium and then incubating them at 37° C. for 20 hours. From the result of Minimum Inhibitory Concentration test, it can be seen that the compound according to the present invention has a good activity against major pathogenic microorganisms, which cause hospital infection, including MRSA strains.

Another assay concerns S. aureus 77. In kind it is cell-based, Staphylococcus aureus. The settings on record: Table 1, Mueller-Hinton agar, 37° C., 20 hours; for MIC: Staphylococcus aureus, 77, read-out: Minimum Inhibitory Concentration, S. aureus 77. Here is the method:
as §1

In another assay the test system is S. epidermidis R005. In kind it is cell-based. The settings on record: Table 1, Mueller-Hinton agar, 37° C., 20 hours; for MIC: Staphylococcus epidermidis, R005, read-out: Minimum Inhibitory Concentration, S. epidermidis R005. The protocol:
as §1

Assay [1] deals with Staphylococcus aureus giorgio. Type of assay: cell-based. The conditions noted are these: Table 1, Mueller-Hinton agar, 37° C., 20 hours; for MIC: Staphylococcus aureus, read-out: Minimum Inhibitory Concentration, Staphylococcus aureus giorgio. Here is the method: as §1
Another assay deals with E. faecalis L239. Type of assay: cell-based. The conditions noted are these: Table 1, Mueller-Hinton agar, 37° C., 20 hours; for MIC: Enterococcus faecalis, L239, read-out: Minimum Inhibitory Concentration, E. faecalis L239. The protocol: as §1

In brackets after ≈: the same amount, converted by molar mass. Bounds are passed on as bounds.

Consider `Nc1cc(SC/C=C/C2=C(C(=O)O)N3C(=O)[C@@H](NC(=O)CNc4cc(Cl)ccc4Cl)[C@H]3SC2)nc(N)n1` [Compound I-5], for which the “Minimum Inhibitory Concentration, S. aureus 241” value with S. aureus 241 stood at 16 µg/mL. For the same molecule, the “Minimum Inhibitory Concentration, S. aureus 77” value in the assay with S. aureus 77 was 0.5 µg/mL. The “Minimum Inhibitory Concentration, S. epidermidis R005” value in the assay on S. epidermidis R005 amounted to 0.5 µg/mL. Also, the “Minimum Inhibitory Concentration, Staphylococcus aureus giorgio” value in assay [1] came to 0.031 µg/mL. Further, the “Minimum Inhibitory Concentration, E. faecalis L239” value in the assay on E. faecalis L239 was 1 µg/mL.
With `Nc1nc(SC/C=C/C2=C(C(=O)O)N3C(=O)[C@@H](NC(=O)CSc4cc(Cl)ccc4Cl)[C@H]3SC2)nc2c1CCC2` [Compound I-20, (6R,7R)-3-{(E)-3-[(4-amino-6,7-dihydro-5H-cyclopenta[d]pyrimidin-2-yl)sulfanyl]-1-propenyl}-7-({2-[(2,5-dichlorophenyl)sulfanyl]acetyl}amino)-8-oxo-5-thia-1-azabicyclo[4.2.0]oct-2-ene-2-carboxylic acid], the MIC in the assay with S. aureus 241 came out at 32 µg/mL (≈ 51.2 µM); in the assay on S. aureus 77, 2 µg/mL (≈ 3.2 µM); in the assay with S. epidermidis R005, 2 µg/mL (≈ 3.2 µM); in assay [1], 0.063 µg/mL (≈ 0.101 µM); in the assay on E. faecalis L239, 2 µg/mL (≈ 3.2 µM).
For the molecule `Nc1cc(N)[n+](C/C=C/C2=C(C(=O)O)N3C(=O)[C@@H](NC(=O)CSc4cc(Cl)ccc4Cl)[C@H]3SC2)cn1` [Compound I-36], the “Minimum Inhibitory Concentration, S. aureus 241” value in the assay on S. aureus 241 was found to be 1 µg/mL. Also, the “Minimum Inhibitory Concentration, S. aureus 77” value in the assay on S. aureus 77 amounted to 0.13 µg/mL. Also, the “Minimum Inhibitory Concentration, S. epidermidis R005” value in the assay on S. epidermidis R005 was 0.063 µg/mL. Besides, the “Minimum Inhibitory Concentration, Staphylococcus aureus giorgio” value in assay [1] was less than 0.008 µg/mL. In addition, the “Minimum Inhibitory Concentration, E. faecalis L239” value with E. faecalis L239 is 0.25 µg/mL.
On to `Nc1nc(O)cc(SC/C=C/C2=C(C(=O)O)N3C(=O)[C@@H](NC(=O)CSc4cc(Cl)ccc4Cl)[C@H]3SC2)n1` [Compound I-1, (6R,7R)-3-{(E)-3-[(2-amino-6-hydroxy-4-pyrimidinyl)sulfanyl]-1-propenyl}-7-({2-[(2,5-dichlorophenyl)sulfanyl]acetyl}amino)-8-oxo-5-thia-1-azabicyclo[4.2.0]oct-2-ene-2-carboxylic acid], for which the MIC with S. aureus 241 is 4 µg/mL (≈ 6.66 µM); with S. aureus 77, 0.25 µg/mL (≈ 0.416 µM); in the assay on S. epidermidis R005, 0.13 µg/mL (≈ 0.216 µM); in assay [1], less than 0.008 µg/mL; in the assay with E. faecalis L239, 0.25 µg/mL (≈ 0.416 µM).
On to `Cc1nc(N)cc(N(C)C)[n+]1C/C=C/C1=C(C(=O)O)N2C(=O)[C@@H](NC(=O)CSc3cc(Cl)ccc3Cl)[C@H]2SC1` [Compound I-37, 4-amino-1-{(E)-3-[(6R,7R)-2-carboxy-7-({2-[(2,5-dichlorophenyl)sulfanyl]acetyl}amino)-8-oxo-5-thia-1-azabicyclo[4.2.0]oct-2-en-3-yl]-2-propenyl}-6-(dimethylamino)-2-methylpyrimidin-1-ium], for which, in the assay with S. aureus 241, the “Minimum Inhibitory Concentration, S. aureus 241” value came to 4 µg/mL. For the same molecule, the “Minimum Inhibitory Concentration, S. aureus 77” value in the assay with S. aureus 77 is 0.25 µg/mL. Besides, in the assay on S. epidermidis R005, the “Minimum Inhibitory Concentration, S. epidermidis R005” value amounted to 0.25 µg/mL. Moreover, the “Minimum Inhibitory Concentration, Staphylococcus aureus giorgio” value in assay [1] stood at 0.016 µg/mL. The “Minimum Inhibitory Concentration, E. faecalis L239” value in the assay on E. faecalis L239 was 0.5 µg/mL.
Consider `CNc1cc(N)nc(C)[n+]1C/C=C/C1=C(C(=O)O)N2C(=O)[C@@H](NC(=O)CSc3cc(Cl)ccc3Cl)[C@H]2SC1` [Compound I-38, 4-amino-1-{(E)-3-[(6R,7R)-2-carboxy-7-({2-[(2,5-dichlorophenyl)sulfanyl]acetyl}amino)-8-oxo-5-thia-1-azabicyclo[4.2.0]oct-2-en-3-yl]-2-propenyl}-2-methyl-6-(methylamino)pyrimidin-1-ium], for which, in the assay with S. aureus 241, the “Minimum Inhibitory Concentration, S. aureus 241” value came out at 8 µg/mL. Further, the “Minimum Inhibitory Concentration, S. aureus 77” value in the assay on S. aureus 77 came to 1 µg/mL. The “Minimum Inhibitory Concentration, S. epidermidis R005” value in the assay on S. epidermidis R005 was determined as 0.5 µg/mL. In assay [1], the “Minimum Inhibitory Concentration, Staphylococcus aureus giorgio” value is 0.031 µg/mL. Besides, the “Minimum Inhibitory Concentration, E. faecalis L239” value with E. faecalis L239 was found to be 1 µg/mL.
Consider `Cc1nc(N)cc[n+]1C/C=C/C1=C(C(=O)O)N2C(=O)[C@@H](NC(=O)CSc3cc(Cl)ccc3Cl)[C@H]2SC1` [Compound I-33], for which the “Minimum Inhibitory Concentration, S. aureus 241” value with S. aureus 241 amounted to 2 µg/mL. For the same molecule, the “Minimum Inhibitory Concentration, S. aureus 77” value with S. aureus 77 was 0.26 µg/mL. The “Minimum Inhibitory Concentration, S. epidermidis R005” value with S. epidermidis R005 amounted to 0.063 µg/mL. In addition, the “Minimum Inhibitory Concentration, Staphylococcus aureus giorgio” value in assay [1] was less than 0.008 µg/mL. For the same molecule, the “Minimum Inhibitory Concentration, E. faecalis L239” value with E. faecalis L239 was found to be 0.5 µg/mL.
For “4-amino-1-{(E)-3-[(6R,7R)-2-carboxy-7-({2-[(2,5-dichlorophenyl)sulfanyl]acetyl}amino)-8-oxo-5-thia-1-azabicyclo[4.2.0]oct-2-en-3-yl]-2-propenyl}-2-methyl pyrimidin-1-ium [Compound I-39]” the same measures were 2 µg/mL, 0.25 µg/mL, 0.063 µg/mL, less than 0.008 µg/mL and 0.5 µg/mL.
For `O=C(CSc1cc(Cl)ccc1Cl)N[C@@H]1C(=O)N2C(C(=O)O)=C(/C=C/CSc3ncnc4[nH]ncc34)CS[C@H]12` [Compound I-27] the same measures were 2 µg/mL, 0.13 µg/mL, 0.13 µg/mL, less than 0.008 µg/mL and 0.13 µg/mL.
The like results for `Nc1nc(SC/C=C/C2=C(C(=O)O)N3C(=O)[C@@H](NC(=O)CSc4cc(Cl)ccc4Cl)[C@H]3SC2)c2c([n+]1N)CCC2` [Compound I-21] were, in that order, 1 µg/mL, 0.063 µg/mL, 0.063 µg/mL, less than 0.008 µg/mL and 0.25 µg/mL.
For `CNc1cc(N)nc(SC/C=C/C2=C(C(=O)O)N3C(=O)[C@@H](NC(=O)CSc4cc(Cl)ccc4Cl)[C@H]3SC2)n1` [Compound I-30, (6R,7R)-3-((E)-3-{[4-amino-6-(methylamino)-2-pyrimidinyl]sulfanyl}-1propenyl)-7-({2-[(2,5-dichlorophenyl)sulfanyl]acetyl}amino)-8-oxo-5-thia-1-azabicyclo [4.2.0]oct-2-ene-2-carboxylic acid], the MIC with S. aureus 241 is 16 µg/mL (≈ 26.1 µM); in the assay with S. aureus 77 it was 0.5 µg/mL (≈ 0.815 µM); with S. epidermidis R005, 0.5 µg/mL (≈ 0.815 µM); in assay [1], 0.016 µg/mL (≈ 0.0261 µM); in the assay with E. faecalis L239, 2 µg/mL (≈ 3.26 µM).
Take `Nc1nc[n+](C/C=C/C2=C(C(=O)O)N3C(=O)[C@@H](NC(=O)CSc4cc(Cl)ccc4Cl)[C@H]3SC2)c2c1CCC2` [Compound I-34]: the “Minimum Inhibitory Concentration, S. aureus 241” value with S. aureus 241 amounted to 4 µg/mL. Moreover, in the assay on S. aureus 77, the “Minimum Inhibitory Concentration, S. aureus 77” value turned out to be 0.5 µg/mL. Further, the “Minimum Inhibitory Concentration, S. epidermidis R005” value in the assay on S. epidermidis R005 came out at 0.13 µg/mL. The “Minimum Inhibitory Concentration, Staphylococcus aureus giorgio” value in assay [1] was less than 0.008 µg/mL. Further, the “Minimum Inhibitory Concentration, E. faecalis L239” value with E. faecalis L239 is 1 µg/mL.
For `Nc1nc[n+](C/C=C/C2=C(C(=O)O)N3C(=O)[C@@H](NC(=O)CSc4cc(Cl)ccc4Cl)[C@H]3SC2)c(N)c1N` [Compound I-35] the same measures were 2 µg/mL, 0.25 µg/mL, 0.25 µg/mL, 0.016 µg/mL and 0.5 µg/mL.
